Assay results as given in patent publication US20240101576A1, “HETEROCYCLIC INHIBITORS OF EGFR AND/OR HER2, FOR USE IN THE TREATMENT OF CANCER” (Scorpion Therapeutics, Inc., priority 2020, published 2024).

Key:
Type in all cases: cell-based
[1] = target: T1, EGFR exon 20 NPG Ins D770_N771 (Ba/F3 cells) (Homo sapiens, UniProt P00533, INS770NPG); assay: Inhibitor activity on EGFR phosphorylation (pEGFR AlphaLISA, 2 h), Ba/F3 EGFR exon 20 NPG Ins
T1 construct: expressed in transfected cells; host or cells: Ba/F3 (murine pro-B cells), retroviral transduction, puromycin selection, IL3-independent pool
Description: Example B. Inhibitor Activity on EGFR phosphorylation (pEGFR)
EGFR mutant Ba/F3 cells were generated by transduction with retrovirus containing vectors expressing EGFR L858R, EGFR exon 19del, EGFR L858R/C797S, EGFR exon 20 NPG Ins D770_N771, EGFR exon 20 ASV Ins V769_D770, or EGFR exon 20 SVD Ins D770_N771 genes along with a puromycin selection marker. Transduced cells are selected with puromycin for 7 days and are then be transferred into culture media without Interleukin 3 (IL3). Surviving cells are confirmed to express EGFR by Western blot and maintained as a pool. CUTO14 cells were obtained from Dr. Robert C. Doebele at the University of Colorado. The IC50 date are included in Table 6 and Table 7.
1.1 Cells are harvested from flask into cell culture medium and the cell number counted.
1.2 Cells are diluted with culture medium to the desired density and 40 μL of cell suspension is added into each well of 384-well cell culture plate and the seeding density is 50K cells/well (Ba/F3) or 12.5K cells/well (CUTO14).
2 Compound Preparation and Treatment
2.1 Test compounds are dissolved to 10 mM in a DMSO stock solution. 45 μL of stock solution is transferred to a 384 polypropylene plate (pp-plate). Perform 3-fold, 10-point dilution via transferring 15 μL compound into 30 μL DMSO using a TECAN (EVO200) liquid handler.
2.2 Spin plates at room temperature at 1,000 RPM for 1 minute.
2.3 Transfer 5 nL of diluted compound from compound source plate into the cell plate.
2.4 After compound treatment for 2 hours, perform pEGFR detection by AlphaLISA for compound treatment plates as described in “Detection” section.
3 Detection by pEGFR AlphaLISA (Perkin-Elmer)
3.1 Plates are removed from incubators and equilibrated at room temperature for 10 minutes, and media was removed
3.2 10 μL of lysis buffer is added and plates shaken at 600 rpm for 1 hr.
3.3 Prepare acceptor mix just before use and dispense 5 μL of acceptor mix to all the wells. Shake 350 rpm for Ihr in the dark
3.4 Prepare donor mix under low light conditions prior to use. Dispense 5 μL of donor mix to all the wells. Mix well on the shaker, seal and wrap in aluminum foil and incubate 1.5 hrs at room temperature in the dark
3.5 Transfer 18.5 μL mixture to OptiPlate 384, and read using an Envision. The IC50 date were included in Table 6 and Table 7.

[2] = target: T1, EGFR exon 20 NPG Ins D770_N771 (Ba/F3 cells); assay: Inhibitor activity on EGFR-dependent cell growth (CellTiter-Glo, 72 h), Ba/F3 EGFR exon 20 NPG Ins; settings: read-out: BaF3 NPG IC50
Summary of the method: (§1)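 IC50s derive from a sigmoidal dose–response fit of CellTiter-Glo signal. The signal was normalised between […]-treated cells and cell-free medium. Ba/F3 mutant-EGFR cells, seeded at 400–800/well depending on the line, had 72 h of exposure to a 10-point, 3-fold compound series.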

EGFR WT (Ba/F3 cells) = target: T2, EGFR WT (Ba/F3 cells) (Homo sapiens, UniProt P00533); assay: Inhibitor activity on EGFR-dependent cell growth (CellTiter-Glo, 72 h), Ba/F3 EGFR WT; settings: read-out: BaF3 WT IC50
T2 construct: expressed in transfected cells; host or cells: Ba/F3 (murine pro-B cells), retroviral transduction, puromycin selection, maintained with EGF
T2 sequence (P00533 25-1210): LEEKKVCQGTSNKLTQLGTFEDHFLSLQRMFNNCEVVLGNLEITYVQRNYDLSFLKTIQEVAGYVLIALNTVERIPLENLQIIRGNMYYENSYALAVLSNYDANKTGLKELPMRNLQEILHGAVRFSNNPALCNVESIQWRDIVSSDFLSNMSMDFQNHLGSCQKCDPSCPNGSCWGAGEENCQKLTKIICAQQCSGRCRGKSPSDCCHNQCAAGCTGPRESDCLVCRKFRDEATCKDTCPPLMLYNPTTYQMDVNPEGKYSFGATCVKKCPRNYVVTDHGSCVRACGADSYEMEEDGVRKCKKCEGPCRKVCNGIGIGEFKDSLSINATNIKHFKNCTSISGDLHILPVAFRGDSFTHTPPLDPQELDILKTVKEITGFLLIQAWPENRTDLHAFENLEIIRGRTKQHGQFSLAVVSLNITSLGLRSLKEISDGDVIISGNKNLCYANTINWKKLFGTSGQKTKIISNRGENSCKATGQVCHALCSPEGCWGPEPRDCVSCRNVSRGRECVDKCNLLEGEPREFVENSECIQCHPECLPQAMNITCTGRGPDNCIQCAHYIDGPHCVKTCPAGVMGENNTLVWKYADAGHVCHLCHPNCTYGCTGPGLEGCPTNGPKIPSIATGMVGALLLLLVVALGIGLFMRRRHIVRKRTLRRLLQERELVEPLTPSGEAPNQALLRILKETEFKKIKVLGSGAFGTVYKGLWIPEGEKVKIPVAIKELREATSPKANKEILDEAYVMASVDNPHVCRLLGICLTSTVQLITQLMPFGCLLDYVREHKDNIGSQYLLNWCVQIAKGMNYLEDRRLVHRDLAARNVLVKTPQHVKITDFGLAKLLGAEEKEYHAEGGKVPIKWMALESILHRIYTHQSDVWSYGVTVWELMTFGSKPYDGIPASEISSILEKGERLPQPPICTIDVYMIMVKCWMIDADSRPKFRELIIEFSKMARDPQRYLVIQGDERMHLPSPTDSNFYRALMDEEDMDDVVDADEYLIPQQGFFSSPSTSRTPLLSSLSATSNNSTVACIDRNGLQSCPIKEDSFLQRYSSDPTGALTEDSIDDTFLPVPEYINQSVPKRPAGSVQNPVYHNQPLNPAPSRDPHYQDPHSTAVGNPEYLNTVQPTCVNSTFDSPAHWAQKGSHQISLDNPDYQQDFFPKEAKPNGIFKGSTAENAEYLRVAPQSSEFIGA
Summary of the method: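 This growth assay used Ba/F3 cells that depend on wild-type EGFR and are kept in EGF without IL3. Compounds were made up as 10 mM DMSO stocks and diluted 3-fold over 10 points. 120 nL went onto 600 cells/well. After 72 hours, 40 μL CellTiter-Glo was added and luminescence read on EnVision after 30 min.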

[3] = target: T3, EGFR exon 20 ASV Ins V769_D770 (Ba/F3 cells) (Homo sapiens, UniProt P00533, INS769ASV); assay: Inhibitor activity on EGFR-dependent cell growth (CellTiter-Glo, 72 h), Ba/F3 EGFR exon 20 ASV Ins; settings: read-out: BaF3 ASV IC50
T3 construct: expressed in transfected cells; host or cells: Ba/F3 (murine pro-B cells), retroviral transduction, puromycin selection, IL3-independent pool
T3 sequence (P00533 with tags, fused parts or gaps INS769ASV): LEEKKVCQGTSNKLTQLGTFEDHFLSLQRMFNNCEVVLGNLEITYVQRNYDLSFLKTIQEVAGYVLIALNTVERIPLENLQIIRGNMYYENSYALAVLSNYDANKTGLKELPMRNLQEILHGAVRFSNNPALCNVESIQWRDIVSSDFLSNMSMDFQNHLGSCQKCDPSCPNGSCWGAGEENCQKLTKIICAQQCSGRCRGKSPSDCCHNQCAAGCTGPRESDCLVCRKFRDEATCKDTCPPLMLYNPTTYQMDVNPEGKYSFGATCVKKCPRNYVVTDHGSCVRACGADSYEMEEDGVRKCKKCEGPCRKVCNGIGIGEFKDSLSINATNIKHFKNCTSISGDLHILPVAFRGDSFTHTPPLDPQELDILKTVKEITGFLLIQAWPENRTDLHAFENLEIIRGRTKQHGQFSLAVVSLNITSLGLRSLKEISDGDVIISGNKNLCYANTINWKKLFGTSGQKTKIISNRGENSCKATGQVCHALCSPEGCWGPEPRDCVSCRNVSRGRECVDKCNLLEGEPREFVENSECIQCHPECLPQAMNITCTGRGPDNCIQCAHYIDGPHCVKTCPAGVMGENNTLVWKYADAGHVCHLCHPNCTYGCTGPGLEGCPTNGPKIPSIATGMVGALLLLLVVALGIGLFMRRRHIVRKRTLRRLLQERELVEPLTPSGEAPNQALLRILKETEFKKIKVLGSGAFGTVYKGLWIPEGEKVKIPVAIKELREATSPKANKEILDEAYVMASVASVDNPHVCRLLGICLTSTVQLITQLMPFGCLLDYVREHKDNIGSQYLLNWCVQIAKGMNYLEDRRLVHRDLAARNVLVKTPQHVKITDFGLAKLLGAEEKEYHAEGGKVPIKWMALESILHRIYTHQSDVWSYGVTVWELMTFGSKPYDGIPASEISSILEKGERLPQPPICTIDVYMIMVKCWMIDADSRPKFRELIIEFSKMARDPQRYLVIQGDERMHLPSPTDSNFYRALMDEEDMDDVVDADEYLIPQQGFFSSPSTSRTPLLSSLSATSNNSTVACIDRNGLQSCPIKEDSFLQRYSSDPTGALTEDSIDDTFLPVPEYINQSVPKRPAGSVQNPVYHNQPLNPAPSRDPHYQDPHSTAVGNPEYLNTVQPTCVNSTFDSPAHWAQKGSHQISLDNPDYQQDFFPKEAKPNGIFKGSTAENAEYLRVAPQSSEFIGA
Summary of the method: as §1

[4] = target: T4, EGFR exon 20 SVD Ins D770_N771 (Ba/F3 cells) (Homo sapiens, UniProt P00533, INS770SVD); assay: Inhibitor activity on EGFR-dependent cell growth (CellTiter-Glo, 72 h), Ba/F3 EGFR exon 20 SVD Ins; settings: read-out: BaF3 SVD IC50
T4 construct: expressed in transfected cells; host or cells: Ba/F3 (murine pro-B cells), retroviral transduction, puromycin selection, IL3-independent pool
T4 sequence (P00533 with tags, fused parts or gaps INS770SVD): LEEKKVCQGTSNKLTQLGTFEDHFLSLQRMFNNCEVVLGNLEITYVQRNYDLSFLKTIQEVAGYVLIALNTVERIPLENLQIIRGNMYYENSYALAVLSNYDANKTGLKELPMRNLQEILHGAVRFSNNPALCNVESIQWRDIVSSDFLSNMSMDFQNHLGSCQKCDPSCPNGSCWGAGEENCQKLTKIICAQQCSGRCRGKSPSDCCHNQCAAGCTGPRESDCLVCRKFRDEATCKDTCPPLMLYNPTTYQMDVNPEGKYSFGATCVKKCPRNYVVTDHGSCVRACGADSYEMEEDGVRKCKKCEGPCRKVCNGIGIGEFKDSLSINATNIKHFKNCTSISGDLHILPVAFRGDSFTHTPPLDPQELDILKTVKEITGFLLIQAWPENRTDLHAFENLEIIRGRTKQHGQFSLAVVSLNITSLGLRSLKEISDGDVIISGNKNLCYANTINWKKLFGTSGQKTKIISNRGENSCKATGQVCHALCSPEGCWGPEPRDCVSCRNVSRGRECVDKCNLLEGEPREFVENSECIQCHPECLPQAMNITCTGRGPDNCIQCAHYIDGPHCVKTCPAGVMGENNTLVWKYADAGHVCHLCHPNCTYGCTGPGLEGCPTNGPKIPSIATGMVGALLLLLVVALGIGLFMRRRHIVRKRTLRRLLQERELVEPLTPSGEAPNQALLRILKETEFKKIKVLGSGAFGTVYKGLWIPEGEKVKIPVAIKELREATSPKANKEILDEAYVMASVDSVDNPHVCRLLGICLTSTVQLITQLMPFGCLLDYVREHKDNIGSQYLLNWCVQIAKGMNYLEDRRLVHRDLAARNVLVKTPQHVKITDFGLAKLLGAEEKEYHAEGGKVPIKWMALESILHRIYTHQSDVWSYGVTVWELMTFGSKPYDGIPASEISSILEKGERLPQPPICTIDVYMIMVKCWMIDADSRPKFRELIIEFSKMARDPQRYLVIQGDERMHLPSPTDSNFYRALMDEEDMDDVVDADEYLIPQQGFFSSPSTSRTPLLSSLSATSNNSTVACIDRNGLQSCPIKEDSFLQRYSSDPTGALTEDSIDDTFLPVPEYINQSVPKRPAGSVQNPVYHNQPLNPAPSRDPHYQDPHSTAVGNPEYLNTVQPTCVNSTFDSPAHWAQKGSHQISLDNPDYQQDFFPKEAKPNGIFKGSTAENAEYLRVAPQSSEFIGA
Summary of the method: as §1

[5] = target: T5, EGFR exon 20 FQEA Ins A763_V764 (Ba/F3 cells) (Homo sapiens, UniProt P00533, INS763FQEA); assay: Inhibitor activity on EGFR-dependent cell growth (CellTiter-Glo, 72 h), Ba/F3 EGFR exon 20 FQEA Ins; settings: read-out: BaF3 FQEA IC50
T5 construct: expressed in transfected cells; host or cells: Ba/F3 (murine pro-B cells), retroviral transduction, puromycin selection, IL3-independent pool
T5 sequence (P00533 with tags, fused parts or gaps INS763FQEA): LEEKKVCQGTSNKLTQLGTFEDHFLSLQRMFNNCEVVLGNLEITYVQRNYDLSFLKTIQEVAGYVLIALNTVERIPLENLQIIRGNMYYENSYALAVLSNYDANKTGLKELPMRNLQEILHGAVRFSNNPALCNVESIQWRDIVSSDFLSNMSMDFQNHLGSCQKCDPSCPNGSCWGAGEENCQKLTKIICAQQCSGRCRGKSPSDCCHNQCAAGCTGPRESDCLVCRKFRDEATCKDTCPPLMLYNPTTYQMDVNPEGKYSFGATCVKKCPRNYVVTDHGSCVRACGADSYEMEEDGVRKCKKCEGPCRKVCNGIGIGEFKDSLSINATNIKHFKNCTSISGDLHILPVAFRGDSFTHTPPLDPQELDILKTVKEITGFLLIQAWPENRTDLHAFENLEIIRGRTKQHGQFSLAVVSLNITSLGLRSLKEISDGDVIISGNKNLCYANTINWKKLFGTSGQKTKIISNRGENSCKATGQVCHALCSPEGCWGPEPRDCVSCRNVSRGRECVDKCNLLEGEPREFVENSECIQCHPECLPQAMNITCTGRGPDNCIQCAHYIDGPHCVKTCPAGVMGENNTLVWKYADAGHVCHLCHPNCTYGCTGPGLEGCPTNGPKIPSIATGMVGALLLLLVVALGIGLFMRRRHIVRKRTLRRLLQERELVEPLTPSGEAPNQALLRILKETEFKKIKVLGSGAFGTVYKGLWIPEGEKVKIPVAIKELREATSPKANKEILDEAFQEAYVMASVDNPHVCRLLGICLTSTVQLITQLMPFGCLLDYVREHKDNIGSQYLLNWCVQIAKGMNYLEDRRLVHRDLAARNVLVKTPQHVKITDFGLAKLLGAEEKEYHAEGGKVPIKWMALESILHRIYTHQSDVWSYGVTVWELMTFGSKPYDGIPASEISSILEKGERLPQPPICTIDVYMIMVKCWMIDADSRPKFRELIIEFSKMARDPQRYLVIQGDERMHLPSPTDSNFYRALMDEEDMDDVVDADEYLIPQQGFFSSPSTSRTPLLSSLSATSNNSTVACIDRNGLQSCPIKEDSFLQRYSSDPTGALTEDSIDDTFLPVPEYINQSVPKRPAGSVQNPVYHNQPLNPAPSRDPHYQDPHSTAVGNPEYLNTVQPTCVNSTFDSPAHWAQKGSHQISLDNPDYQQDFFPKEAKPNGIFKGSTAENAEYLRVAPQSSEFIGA
Summary of the method: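 Compounds, serially diluted 3-fold over 10 points in DMSO and added at 120 nL per well, act on Ba/F3 EGFR-mutant cells for 72 h. Seeding is 800 (exon 19del, FQEA), 600 (L858R/C797S) or 400 (L858R) cells/well. CTG luminescence is fitted with a four-parameter logistic curve to give IC50.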

[6] = target: T3, EGFR exon 20 ASV Ins V769_D770 (Ba/F3 cells); assay: Inhibitor activity on EGFR phosphorylation (pEGFR AlphaLISA, 2 h), Ba/F3 EGFR exon 20 ASV Ins; settings: EGFR phosphorylation, AlphaLISA, 2 hours; read-out: ASV IC50 (pEGFR)
Summary of the method: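 After a 2-hour exposure to compound (3-fold, 10-point series from 10 mM DMSO stock), cell lysates were assayed for pEGFR by AlphaLISA. Cells were retrovirally engineered, IL3-independent Ba/F3 lines expressing each EGFR mutant at 50K/well, or CUTO14 cells at 12.5K/well, giving IC50 values.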

Row | SMILES | IC50 [1] | IC50 [2] | IC50 (EGFR WT (Ba/F3 cells)) | IC50 [3] | IC50 [4] | IC50 [5] | IC50 [6]
1 | COc1c(F)cccc1Nc1c(-c2ncnc3c2ccn3C)[nH]c2c1C(=O)NCC2 [Compound 150, 3-((3-fluoro-2-methoxyphenyl)amino)-2-(7-methyl-7H-pyrrolo[2,3-d]pyrimidin-4-yl)-1,5,6,7-tetrahydro-4H-pyrrolo[3,2-c]pyridin-4-one] | > 1000 nM | > 1000 nM | > 1000 nM |  |  |  | 
2 | COc1c(F)cccc1Nc1c(-c2snc3ccccc23)[nH]c2c1C(=O)NCC2 [Compound 157, 2-(benzo[c]isothiazol-3-yl)-3-((3-fluoro-2-methoxyphenyl)amino)-1,5,6,7-tetrahydro-4H-pyrrolo[3,2-c]pyridin-4-one] | > 1000 nM | > 1000 nM | 100 to 1000 nM |  |  |  | 
3 | COc1c(F)cccc1Nc1c(-c2ncnc3[nH]ncc23)[nH]c2c1C(=O)NCC2 [Compound 158, 3-((3-fluoro-2-methoxyphenyl)amino)-2-(1H-pyrazolo[3,4-d]pyrimidin-4-yl)-1,5,6,7-tetrahydro-4H-pyrrolo[3,2-c]pyridin-4-one] | 100 to 1000 nM | > 1000 nM | > 1000 nM |  |  |  | 
4 | COc1c(F)cccc1Nc1c(-c2ccnc(-c3ccccc3)c2)[nH]c2c1C(=O)NCC2 [Compound 159, 3-((3-fluoro-2-methoxyphenyl)amino)-2-(2-phenylpyridin-4-yl)-1,5,6,7-tetrahydro-4H-pyrrolo[3,2-c]pyridin-4-one] | > 1000 nM | > 1000 nM | 100 to 1000 nM |  |  |  | 
5 | COc1c(Cl)cccc1Nc1c(-c2ccnc(N)n2)[nH]c2c1C(=O)NC[C@@H]2C[C@@H]1COCCO1 [Compound 532, (7S)-2-(2-aminopyrimidin-4-yl)-3-[(3-chloro-2-methoxyphenyl)amino]-7-[(2R)-1,4-dioxan-2-ylmethyl]-1H,5H,6H,7H-pyrrolo[3,2-c]pyridin-4-one] | < 100 nM | < 100 nM | > 1000 nM | < 100 nM | < 100 nM |  | 
6 | C=CC(=O)N1CCC2(CC1)CNC(=O)c1c2[nH]c(-c2ccncc2F)c1Nc1cccc(F)c1CC [Compound 557, 3′-[(2-ethyl-3-fluorophenyl)amino]-2′-(3-fluoropyridin-4-yl)-1-(prop-2-enoyl)-5′,6′-dihydro-1′H-spiro[piperidine-4,7′-pyrrolo[3,2-c]pyridin]-4′-one] | < 100 nM | < 100 nM | < 100 nM | < 100 nM | < 100 nM |  | 
7 | COc1nc2c(-c3[nH]c4c(c3Nc3cccc(F)c3OC)C(=O)NCC4)ccnc2cc1C [Compound 682, 3-[(3-fluoro-2-methoxyphenyl)amino]-2-(6-methoxy-7-methyl-1,5-naphthyridin-4-yl)-1H,5H,6H,7H-pyrrolo[3,2-c]pyridin-4-one] | < 100 nM | < 100 nM | < 100 nM |  |  |  | 
8 | COc1cc2nccc(-c3[nH]c4c(c3Nc3cccc(F)c3C)C(=O)NCC4)c2nc1OC [Compound 808, 2-(6,7-dimethoxy-1,5-naphthyridin-4-yl)-3-[(3-fluoro-2-methylphenyl)amino]-1H,5H,6H,7H-pyrrolo[3,2-c]pyridin-4-one] | < 100 nM |  | < 100 nM | < 100 nM | < 100 nM | < 100 nM | 
9 | COc1c(F)cccc1Nc1c(-c2ncnc3sccc23)[nH]c2c1C(=O)NCC2 [compound 138] | > 1000 nM | > 1000 nM | > 1000 nM |  |  |  | 
10 | COc1c(Cl)cccc1Nc1c(-c2ccnc3[nH]ccc23)[nH]c2c1C(=O)NCC2 [compound 218] |  | > 1000 nM | > 1000 nM | 100 to 1000 nM | 100 to 1000 nM | 100 to 1000 nM | < 100 nM
11 | COc1nn(C)cc1Nc1nccc(-c2[nH]c3c(c2Nc2cccc(Cl)c2OC)C(=O)NCC3)n1 [compound 219] |  | < 100 nM | < 100 nM | < 100 nM | < 100 nM | < 100 nM | < 100 nM
12 | COc1c(Cl)cccc1Nc1c(-c2ccnc(NC(C)C)n2)[nH]c2c1C(=O)NCC2 [compound 225] |  | 100 to 1000 nM | > 1000 nM | 100 to 1000 nM | 100 to 1000 nM | > 1000 nM | 100 to 1000 nM
13 | COc1c(Cl)cccc1Nc1c(-c2ncnc3[nH]ccc23)[nH]c2c1C(=O)NCC2 [compound 289] |  | > 1000 nM | > 1000 nM | > 1000 nM | > 1000 nM | > 1000 nM | > 1000 nM
14 | COc1c(Cl)cccc1Nc1c(-c2ccnc3c2OCCN3)[nH]c2c1C(=O)NCC2 [compound 292] |  | 100 to 1000 nM | > 1000 nM | 100 to 1000 nM | 100 to 1000 nM | 100 to 1000 nM | < 100 nM
15 | COc1c(Cl)cccc1Nc1c(-c2nc(N)ncc2F)[nH]c2c1C(=O)NCC2 [compound 295] |  | > 1000 nM | > 1000 nM | 100 to 1000 nM | > 1000 nM | 100 to 1000 nM | 100 to 1000 nM
16 | COc1c(Cl)cccc1Nc1c(-c2ccnc(NCCF)n2)[nH]c2c1C(=O)NCC2 [compound 710, 3-[(3-chloro-2-methoxyphenyl)amino]-2-[2-[(2-fluoroethyl)amino]pyrimidin-4-yl]-1H,5H,6H,7H-pyrrolo[3,2-c]pyridin-4-one] |  | 100 to 1000 nM | > 1000 nM | 100 to 1000 nM | 100 to 1000 nM | 100 to 1000 nM | < 100 nM
17 | COc1c(Cl)cccc1Nc1c(-c2ccnc(NC[C@H]3CCCO3)n2)[nH]c2c1C(=O)NCC2 [compound 721, (R)-3-((3-chloro-2-methoxyphenyl)amino)-2-(2-(((tetrahydrofuran-2-yl)methyl)amino)pyrimidin-4-yl)-1,5,6,7-tetrahydro-4H-pyrrolo[3,2-c]pyridin-4-one] |  | > 1000 nM | > 1000 nM | > 1000 nM | > 1000 nM | > 1000 nM | 100 to 1000 nM
18 | COc1c(Cl)cccc1Nc1c(-c2ccnc(NC[C@@H]3CCCO3)n2)[nH]c2c1C(=O)NCC2 [compound 722, 3-[(3-chloro-2-methoxyphenyl)amino]-2-(2-[[(2S)-oxolan-2-ylmethyl]amino]pyrimidin-4-yl)-1H,5H,6H,7H-pyrrolo[3,2-c]pyridin-4-one] |  | > 1000 nM | > 1000 nM | > 1000 nM | > 1000 nM | > 1000 nM | 100 to 1000 nM
